Data published in patent US11371055B2, “Herbicide resistance genes” (CORTEVA AGRISCIENCE LLC, priority 2005, dated 2022).

How the values were obtained:
T1 AAD-12 (v1) canola = assay: 2,4-D DMA tolerance in T1 canola; format: in vivo, Brassica napus
Method: For T1 AAD-12 (v1), 5-6 mg of seed were stratified, sown, and a fine layer of Sunshine Mix #5 media was added as a top layer of soil. Emerging plants were selected with 560 g ae/ha 2,4-D at 7 and 13 days after planting.
Surviving plants were transplanted into 3-inch pots containing Metro Mix media. Surviving plants from T1 progenies, that were selected with 560 g ae/ha 2,4-D, were also transplanted into 3-inch pots filled with Metro Mix soil. At 2-4 leaf stage plants were sprayed with either 280, 560, 1120, or 2240 g ae/ha 2,4-D DMA. Plants were graded at 3 and 14 DAT and compared to untransformed control plants. A sampling of T1 event injury data 14DAT may be seen in Table 30.

[1] = tested on: R-dichlorprop habituated PHL (Petite Havana) tobacco cells; assay: 2,4-D dose response of tobacco cell suspension (PHL); format: cell-based
Method: A dose response study was conducted with both the R-dichlorprop habituated PHL cells and the R-dichlorprop habituated BY2 cells where R-dichlorprop was substituted directly for 2,4-D in culture media. Though the focus was on PHL, a dose response was also done with BY2 in case of possible future studies, as well as to help predict the dose response for PHL. For the dichlorprop habituated PHL dose response, the levels of 2,4-D used (on LSBY2C medium with R-dichlorprop) were 0 (the control), 1, 2, 3, 5, 8, 10, 12, 15, 18, 20, 40, 60, 80, […] mg/L 2,4-D. There were four replications per concentration. For the R-dichlorprop habituated BY2 dose response, the levels of 2,4-D used (on LSBY2C medium) were 0 (the control), 1, 2, 3, 5, 8, 10, 20, 30, 40, mg/L 2,4-D.

[2] = tested on: T4 Arabidopsis seed homozygous for AAD-12 (v1) spiked into wildtype (sensitive) seed; assay: AAD-12 (v1) as selectable marker with 2,4-D as selection agent; format: in vivo, Arabidopsis thaliana; conditions: applied 7 and 11 days after planting (DAP); Resistant or Sensitive identified 17 DAP
Method: The ability to use AAD-12 (v1) as a selectable marker using 2,4-D as the selection agent was analyzed initially with Arabidopsis transformed as described above. Approximately 50 T4 generation Arabidopsis seed (homozygous for AAD-12 (v1)) were spiked into approximately 5,000 wildtype (sensitive) seed. Several treatments were compared, each tray of plants receiving either one or two application timings of 2,4-D in one of the following treatment schemes: 7 DAP, 11 DAP, or 7 followed by 11 DAP. Since all individuals also contained the PAT gene in the same transformation vector, AAD-12 selected with 2,4-D could be directly compared to PAT selected with glufosinate.
Treatments were applied with a DeVilbiss spray tip as previously described. Plants were identified as Resistant or Sensitive 17 DAP.

[3] = tested on: wildtype Maverick soybeans; assay: 2,4-D leaf paint (leaf flip assay) on wildtype soybean; format: in vivo, Glycine max; set-up: key to Leaf flip assay (18 HAT) Node N-2: 1 = Flip; 0 = No Flip
Excerpt: Plants that are transferred to the greenhouse can be assayed for the presence of an active PAT gene further with a non-destructive manner by painting a section of leaf of the T0 primary transformant, or progeny thereof, with a glufosinate solution [0.05-2% v/v Liberty Herbicide, preferably 0.25-1.0% (v/v),=500-2000 ppm glufosinate, Bayer Crop Science]. Depending on the concentration used, assessment for glufosinate injury can be made 1-7 days after treatment. Plants can also be tested for 2,4-D tolerance in a non-destructive manner by selective application of a 2,4-D solution in water (0.25-1% v/v commercial 2,4-D dimethylamine salt formulation, preferably 0.5% v/v=2280 ppm 2,4-D ae) to the terminal leaflet of the newly expanding trifoliolate one or two, preferably two, nodes below the youngest emerging trifolioate. […] Glyphosate resistance (in plants transformed with constructs that contain EPSPS) or another glyphosate tolerance gene can be assessed in the T1 generation by postemergence applications of glyphosate with a dose range from 280-2240 g ae/ha glyphosate. […] Individual T0 plants were assessed for the presence of the coding region of the gene of interest (AAD-12 (v1) or PAT v6) and copy number. […]
A subset of the initial transformants were assessed in the T0 generation according to the methods above. […]

[4] = LSBY2C medium with R-dichlorprop

CNC.O=C(O)COc1ccc(Cl)cc1Cl [2,4-D DMA]
Average % injury 14 DAT (T1 AAD-12 (v1) canola; T1 pDAB3759(18)009.001, 280 g ae/ha): 0%
Average % injury 14 DAT (T1 AAD-12 (v1) canola; T1 pDAB3759(18)009.001, 560 g ae/ha): 0%
Average % injury 14 DAT (T1 AAD-12 (v1) canola; T1 pDAB3759(18)009.001, 1120 g ae/ha): 0%
Average % injury 14 DAT (T1 AAD-12 (v1) canola; T1 pDAB3759(18)009.001, 2240 g ae/ha): 5%
Average % injury 14 DAT (T1 AAD-12 (v1) canola; T1 pDAB3759(18)022.001, 280 g ae/ha): 0%
Average % injury 14 DAT (T1 AAD-12 (v1) canola; T1 pDAB3759(18)022.001, 560 g ae/ha): 0%
Average % injury 14 DAT (T1 AAD-12 (v1) canola; T1 pDAB3759(18)022.001, 1120 g ae/ha): 13%
Average % injury 14 DAT (T1 AAD-12 (v1) canola; T1 pDAB3759(18)022.001, 2240 g ae/ha): 83%
Average % injury 14 DAT (T1 AAD-12 (v1) canola; T1 pDAB3759(18)023.001, 280 g ae/ha): 0%
Average % injury 14 DAT (T1 AAD-12 (v1) canola; T1 pDAB3759(18)023.001, 560 g ae/ha): 0%
Average % injury 14 DAT (T1 AAD-12 (v1) canola; T1 pDAB3759(18)023.001, 1120 g ae/ha): 3%
Average % injury 14 DAT (T1 AAD-12 (v1) canola; T1 pDAB3759(18)023.001, 2240 g ae/ha): 6%
Average % injury 14 DAT (T1 AAD-12 (v1) canola; T1 pDAB3759(18)030.001, 280 g ae/ha): 0%
Average % injury 14 DAT (T1 AAD-12 (v1) canola; T1 pDAB3759(18)030.001, 560 g ae/ha): 0%
Average % injury 14 DAT (T1 AAD-12 (v1) canola; T1 pDAB3759(18)030.001, 1120 g ae/ha): 5%
Average % injury 14 DAT (T1 AAD-12 (v1) canola; T1 pDAB3759(18)030.001, 2240 g ae/ha): 31%
Average % injury 14 DAT (T1 AAD-12 (v1) canola; T1 pDAB3759(33)013.001, 280 g ae/ha): 0%
Average % injury 14 DAT (T1 AAD-12 (v1) canola; T1 pDAB3759(33)013.001, 560 g ae/ha): 0%
Average % injury 14 DAT (T1 AAD-12 (v1) canola; T1 pDAB3759(33)013.001, 1120 g ae/ha): 0%
Average % injury 14 DAT (T1 AAD-12 (v1) canola; T1 pDAB3759(33)013.001, 2240 g ae/ha): 1%

O=C(O)COc1ccc(Cl)cc1Cl [2,4-D, 2,4-dichlorophenoxyacetic acid]
growth of PHL suspension ([1]; 10-mg/L 2,4-D): slight growth
2,4-D concentrations with growth comparable to control treatments [1, 4]: 1 to 8 mg/L
lethal concentrations of 2,4-D [1, 4]: above 10 mg/L
optimum treatment for selection of transformed plants [2]: 75 g ae/ha
Leaf flip assay (18 HAT) Node N-2 ([3]; 2,4-D leaf paint, Maverick WT plants (WT-10, WT-2)): 1
response to 2,4-D leaf painting ([3]; 2,4-D solution applied to terminal leaflet): did
